Measured values reported in patent US9133115B2 (ACHILLION PHARMACEUTICALS, INC., priority 2008, dated 2015).

test system: HCV replicon; assay: HCV replicon replication assay (NPT ELISA) in Huh-7 replicon-containing cells; assay type: cell-based; settings: Hepatitis C virus, 72 h; HCV replicon in Huh-7 cells, three days incubation; read-out: EC50
Summary of the method: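 Huh-7 cells carrying a bicistronic HCV replicon (HCV-IRES-neo, EMCV-IRES-driven NS3–NS5B, 3′-NTR) were seeded at 6000-7500 cells/well, grown 24 h to 60-70% confluence, then treated with graded compound concentrations. Replication was read as NPT level by capture ELISA (rabbit anti-NPTII, Eu-N1 secondary); interferon alpha served as positive control.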

SMILES | EC50 [nM]
C=C[C@@H]1C[C@]1(NC(=O)[C@@H]1C[C@@H](Oc2cc(-c3ccccc3)nc3cc(OC)ccc23)CN1C(=O)[C@@H](CC(=O)N1CCCC[C@H]1C(=O)Nc1nccs1)C(C)(C)C)C(=O)NS(=O)(=O)C1CC1 [Compound 211, (2S)-1-((3S)-3-((2S,4R)-2-((1R)-1-(cyclopropyl-sulfonylcarbamoyl)-2-vinylcyclopropyl-carbamoyl)-4-(7-methoxy-2-phenylquinolin-4-yloxy)pyrrolidine-1-carbonyl)-4,4-dimethylpentanoyl)-N-(thiazol-2-yl)piperidine-2-carboxamide] | < 1000
C=C[C@@H]1C[C@]1(NC(=O)[C@@H]1C[C@@H](Oc2cc(-c3ccccc3)nc3cc(OC)ccc23)CN1C(=O)[C@@H](CC(=O)N1CCCC1C(=O)Nc1nccs1)C(C)(C)C)C(=O)NS(=O)(=O)C1CC1 (stereo partly drawn) [Compound 212, (2S,4R)-1-((S)-2-tert-butyl-4-oxo-4-((S)-2-(thiazol-2-ylcarbamoyl)pyr-rolidin-1-yl)butanoyl)-N-((1R)-1-(cyclo-propylsulfonyl-carbamoyl)-2-vinylcyclopropyl)-4-(7-methoxy-2-phenylquinolin-4-yloxy)pyrrolidine-2-carboxamide] | < 1000
C=C[C@@H]1C[C@]1(NC(=O)[C@H]1C[C@@H](Oc2cc(-c3ccccc3)nc3cc(OC)ccc23)CN1C(=O)[C@@H](CC(=O)N1CCCCC1)C(C)(C)C)C(=O)NS(=O)(=O)C1CC1 [Compound 213, (2R,4R)-1-((S)-2-tert-butyl-4-oxo-4-(piperidin-1-yl)butanoyl)-N-((1R)-1-(cyclo-propylsulfonyl-carbamoyl)-2-vinyl-cyclopropyl)-4-(7-methoxy-2-phenylquinolin-4-yloxy)pyrrolidine-2-carboxamide] | < 1000
C=C[C@@H]1C[C@]1(NC(=O)[C@@H]1C[C@@H](Oc2cc(-c3ccccn3)nc3cc(OC)ccc23)CN1C(=O)[C@@H](CC(=O)N1CCC(F)(F)C1)C(C)(C)C)C(=O)NS(=O)(=O)C1CC1 [Compound 214, (2S,4R)-1-((S)-2-tert-butyl-4-(3,3-difluoropyrrolidin-1-yl)-4-oxobutanoyl)-N-((1R)-1-(cyclopropyl-sulfonylcarbamoyl)-2-vinylcyclopropyl)-4-(7-methoxy-2-(pyridin-2-yl)quinolin-4-yloxy)pyrrolidine-2-carboxamide] | < 1000
C=C[C@@H]1C[C@]1(NC(=O)[C@@H]1C[C@@H](Oc2cc(-c3ccccn3)nc3cc(OC)ccc23)CN1C(=O)[C@@H](CC(=O)N1CCC(C(F)(F)F)CC1)C(C)(C)C)C(=O)NS(=O)(=O)C1CC1 [Compound 215, (2S,4R)-1-((S)-2-tert-butyl-4-oxo-4-(4-(trifluoro-methyl)piperidin-1-yl)butanoyl)-N-((1R)-1-(cyclopropyl-sulfonylcarbamoyl)-2-vinylcyclopropyl)-4-(7-methoxy-2-(pyridin-2-yl)quinolin-4-yloxy)pyrrolidine-2-carboxamide] | < 1000
C=C[C@@H]1C[C@]1(NC(=O)[C@@H]1C[C@@H](Oc2cc(-c3ccccn3)nc3cc(OC)ccc23)CN1C(=O)[C@@H](CC(=O)N1CCC(F)(F)CC1)C(C)(C)C)C(=O)NS(=O)(=O)C1CC1 [Compound 216, (2S,4R)-1-((S)-2-tert-butyl-4-(4,4-difluoropiperidin-1-yl)-4-oxobutanoyl)-N-((1R)-1-(cyclo-propylsulfonyl-carbamoyl)-2-vinylcyclopropyl)-4-(7-methoxy-2-(pyridin-2-yl)quinolin-4-yloxy)pyrrolidine-2-carboxamide] | < 1000
C=C[C@@H]1C[C@]1(NC(=O)[C@@H]1C[C@@H](Oc2cc(-c3ccccn3)nc3cc(OC)ccc23)CN1C(=O)[C@@H](CC(=O)N1CCCC(F)(F)C1)C(C)(C)C)C(=O)NS(=O)(=O)C1CC1 [Compound 217, (2S,4R)-1-((S)-2-tert-butyl-4-(3,3-difluoropiperidin-1-yl)-4-oxobutanoyl)-N-((1R)-1-(cyclopropyl-sulfonylcarbamoyl)-2-vinylcyclopropyl)-4-(7-methoxy-2-(pyridin-2-yl)quinolin-4-yloxy)pyrrolidine-2-carboxamide] | < 1000
C=C[C@@H]1C[C@]1(NC(=O)[C@@H]1C[C@@H](Oc2cc(-c3ccccn3)nc3cc(OC)ccc23)CN1C(=O)[C@@H](CC(=O)N1CCC(F)CC1)C(C)(C)C)C(=O)NS(=O)(=O)C1CC1 [Compound 218, (2S,4R)-1-((S)-2-tert-butyl-4-(4-fluoropiperidin-1-yl)-4-oxobutanoyl)-N-((1R)-1-(cyclo-propylsulfonyl-carbamoyl)-2-vinylcyclopropyl)-4-(7-methoxy-2-(pyridin-2-yl)quinolin-4-yloxy)pyrrolidine-2-carboxamide] | < 1000
C=C[C@@H]1C[C@]1(NC(=O)[C@@H]1C[C@@H](Oc2cc(-c3ccccn3)nc3cc(OC)ccc23)CN1C(=O)[C@@H](CC(=O)N1CC2CCC1C2)C(C)(C)C)C(=O)NS(=O)(=O)C1CC1 (stereo partly drawn) [Compound 220, (2S,4R)-1-((2S)-2-(2-(2-azabi-cyclo[2.2.1]heptan-2-yl)-2-oxoethyl)-3,3-dimethylbutanoyl)-N-((1R)-1-(cyclo-propylsulfonyl-carbamoyl)-2-vinylcyclopropyl)-4-(7-methoxy-2-(pyridin-2-yl)quinolin-4-yloxy)pyrrolidine-2-carboxamide] | < 1000
C=C[C@@H]1C[C@]1(NC(=O)[C@@H]1C[C@@H](Oc2cc(-c3ccccn3)nc3cc(OC)ccc23)CN1C(=O)[C@@H](CC(=O)N1CC2CC3CC(C2)CC1C3)C(C)(C)C)C(=O)NS(=O)(=O)C1CC1 [Compound 221] | > 10000
C=C[C@@H]1C[C@]1(NC(=O)[C@@H]1C[C@@H](Oc2cc(-c3ccccc3)nc3cc(OC)ccc23)CN1C(=O)[C@@H](CC(=O)N1CCC1)C(C)(C)C)C(=O)NS(=O)(=O)C1CC1 [Compound 222, (2S,4R)-1-((S)-4-(azetidin-1-yl)-2-tert-butyl-4-oxobutanoyl)-N-((1R)-1-(cyclopropyl-sulfonylcarbamoyl)-2-vinylcyclopropyl)-4-(7-methoxy-2-phenylquinolin-4-yloxy)pyrrolidine-2-carboxamide] | < 1000
C=C[C@@H]1C[C@]1(NC(=O)[C@@H]1C[C@@H](Oc2cc(-c3ccccc3)nc3cc(OC)ccc23)CN1C(=O)[C@@H](CC(=O)N1CC(F)(F)C1)C(C)(C)C)C(=O)NS(=O)(=O)C1CC1 [Compound 223, (2S,4R)-1-((S)-2-tert-butyl-4-(3,3-difluoroazetidin-1-yl)-4-oxobutanoyl)-N-((1R)-1-(cyclopropyl-sulfonylcarbamoyl)-2-vinylcyclopropyl)-4-(7-methoxy-2-phenylquinolin-4-yloxy)pyrrolidine-2-carboxamide] | < 1000
C=C[C@@H]1C[C@]1(NC(=O)[C@@H]1C[C@@H](Oc2cc(-c3ccccc3)nc3cc(OC)ccc23)CN1C(=O)[C@@H](CC(=O)N1CC(Cl)C1)C(C)(C)C)C(=O)NS(=O)(=O)C1CC1 [Compound 224, (2S,4R)-1-((S)-2-tert-butyl-4-(3-chloroazetidin-1-yl)-4-oxobutanoyl)-N-((1R)-1-(cyclopropyl-sulfonylcarbamoyl)-2-vinylcyclopropyl)-4-(7-methoxy-2-phenylquinolin-4-yloxy)pyrrolidine-2-carboxamide] | < 1000
C=C[C@@H]1C[C@]1(NC(=O)[C@@H]1C[C@@H](Oc2cc(-c3ccccc3)nc3ccccc23)CN1C(=O)[C@@H](CC(=O)N1CCCCC1)C(C)(C)C)C(=O)NS(=O)(=O)C1CC1 [Compound 225, (2S,4R)-1-((S)-2-tert-butyl-4-oxo-4-(piperidin-1-yl)butanoyl)-N-((1R)-1-(cyclopropyl-sulfonylcarbamoyl)-2-vinylcyclopropyl)-4-(2-phenylquinolin-4-yloxy)pyrrolidine-2-carboxamide] | < 1000
C=C[C@@H]1C[C@]1(NC(=O)[C@@H]1C[C@@H](Oc2cc(-c3ccccc3)nc3ccc(C)cc23)CN1C(=O)[C@@H](CC(=O)N1CCCCC1)C(C)(C)C)C(=O)NS(=O)(=O)C1CC1 [Compound 226, (2S,4R)-1-((S)-2-tert-butyl-4-oxo-4-(piperidin-1-yl)butanoyl)-N-((1R)-1-(cyclopropyl-sulfonylcarbamoyl)-2-vinylcyclopropyl)-4-(6-methyl-2-phenylquinolin-4-yloxy)pyrrolidine-2-carboxamide] | < 1000
C=C[C@@H]1C[C@]1(NC(=O)[C@@H]1C[C@@H](Oc2cc(-c3ccccc3)nc3cc(OC)ccc23)CN1C(=O)[C@@H](CC(=O)N1CCC1c1ccccc1)C(C)(C)C)C(=O)NS(=O)(=O)C1CC1 (stereo partly drawn) [Compound 227, (2S,4R)-1-((2S)-2-tert-butyl-4-oxo-4-(2-phenylazetidin-1-yl)butanoyl)-N-((1R)-1-(cyclopropyl-sulfonylcarbamoyl)-2-vinylcyclopropyl)-4-(7-methoxy-2-phenylquinolin-4-yloxy)pyrrolidine-2-carboxamide] | < 1000
C=C[C@@H]1C[C@]1(NC(=O)[C@@H]1C[C@@H](Oc2cc(-c3ccccc3)nc3cc(OC)ccc23)CN1C(=O)[C@@H](CC(=O)N1CCC1c1cccc(OC)c1)C(C)(C)C)C(=O)NS(=O)(=O)C1CC1 (stereo partly drawn) [Compound 228, (2S,4R)-1-((2S)-2-tert-butyl-4-(2-(3-methoxyphenyl)aze-tidin-1-yl)-4-oxobutanoyl)-N-((1R)-1-(cyclopropyl-sulfonylcarbamoyl)-2-vinylcyclopropyl)-4-(7-methoxy-2-phenylquinolin-4-yloxy)pyrrolidine-2-carboxamide] | < 1000
C=C[C@@H]1C[C@]1(NC(=O)[C@@H]1C[C@@H](Oc2cc(-c3ccccc3)nc3ccc(OC)cc23)CN1C(=O)[C@@H](CC(=O)N1CCCCC1)C(C)(C)C)C(=O)NS(=O)(=O)C1CC1 [Compound 229, (2S,4R)-1-((S)-2-tert-butyl-4-oxo-4-(piperidin-1-yl)butanoyl)-N-((1R)-1-(cyclopropyl-sulfonylcarbamoyl)-2-vinylcyclopropyl)-4-(6-methoxy-2-phenylquinolin-4-yloxy)pyrrolidine-2-carboxamide] | < 1000
